According to US9580437B2, “Triazolopyrimidine compounds and uses thereof” (Novartis AG, priority 2014, dated 2017):

Experiments:
[1] = test system: H3K27 methylation in G401 cell; experiment: ELISA (H3K27 methylation) assay in G401 cells; format: cell-based, human; conditions: read-out: (c) IC50 ELISA Qualified
Procedure: (§1) A 6 μL solution of 3 μM of the peptide substrate H3K27Me0 (histone H3[21-44]-biotin) in reaction buffer was added to initiate each reaction. […] ELISA (H3K27 Methylation) Assay

[2] = target: wild type PRC2 (wtPRC2) complex (Homo sapiens (Human), UniProt O75530); experiment: EED LC-MS assay; format: biochemical; conditions: read-out: (b) IC50 EED LC-MS Qualified
Procedure: as §1

EED (1-441)-His protein = EED (1-441)-His protein (Homo sapiens (Human), UniProt O75530); experiment: EED-H3K27Me3 peptide competition binding assay by AlphaScreen; conditions: read-out: (a) IC50 EED Alphascreen binding Qualified
Excerpt: EED-H3K27Me3 peptide competition binding assay by AlphaScreen (α-screen)

Sequence of wild type PRC2 (wtPRC2) complex (O75530 whole entry): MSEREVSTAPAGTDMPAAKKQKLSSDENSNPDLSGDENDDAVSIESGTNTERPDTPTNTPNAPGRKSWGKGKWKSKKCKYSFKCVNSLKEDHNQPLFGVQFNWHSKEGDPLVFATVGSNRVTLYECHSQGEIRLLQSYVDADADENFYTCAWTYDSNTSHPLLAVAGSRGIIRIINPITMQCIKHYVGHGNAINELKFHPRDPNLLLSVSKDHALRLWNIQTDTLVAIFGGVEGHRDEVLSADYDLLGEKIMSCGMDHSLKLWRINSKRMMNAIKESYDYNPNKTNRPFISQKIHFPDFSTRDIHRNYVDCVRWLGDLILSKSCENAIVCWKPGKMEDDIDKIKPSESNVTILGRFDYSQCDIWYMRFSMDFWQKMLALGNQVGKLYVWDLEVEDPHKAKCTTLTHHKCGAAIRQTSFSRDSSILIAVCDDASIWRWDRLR
Sequence of wild type PRC2 (wtPRC2) complex (Q15910 whole entry partner): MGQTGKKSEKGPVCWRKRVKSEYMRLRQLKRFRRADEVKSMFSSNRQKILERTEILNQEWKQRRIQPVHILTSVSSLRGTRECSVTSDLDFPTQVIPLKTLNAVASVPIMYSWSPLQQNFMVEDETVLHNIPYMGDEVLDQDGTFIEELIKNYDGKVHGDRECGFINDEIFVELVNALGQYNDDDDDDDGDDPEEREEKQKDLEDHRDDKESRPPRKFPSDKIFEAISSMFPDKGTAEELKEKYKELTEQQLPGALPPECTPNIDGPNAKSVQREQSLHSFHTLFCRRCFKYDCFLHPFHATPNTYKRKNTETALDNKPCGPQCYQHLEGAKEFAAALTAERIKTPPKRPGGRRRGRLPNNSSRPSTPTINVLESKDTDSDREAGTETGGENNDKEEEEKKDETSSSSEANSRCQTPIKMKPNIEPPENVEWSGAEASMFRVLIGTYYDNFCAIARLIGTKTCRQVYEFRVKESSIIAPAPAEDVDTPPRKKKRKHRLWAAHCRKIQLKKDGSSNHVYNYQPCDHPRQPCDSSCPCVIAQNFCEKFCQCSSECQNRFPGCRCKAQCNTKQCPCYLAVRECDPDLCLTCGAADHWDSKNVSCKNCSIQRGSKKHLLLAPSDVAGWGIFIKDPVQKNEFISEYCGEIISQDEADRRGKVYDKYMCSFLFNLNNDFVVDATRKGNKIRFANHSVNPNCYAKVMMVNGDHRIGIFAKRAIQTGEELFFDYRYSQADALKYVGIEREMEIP
Sequence of wild type PRC2 (wtPRC2) complex (Q15022 whole entry partner): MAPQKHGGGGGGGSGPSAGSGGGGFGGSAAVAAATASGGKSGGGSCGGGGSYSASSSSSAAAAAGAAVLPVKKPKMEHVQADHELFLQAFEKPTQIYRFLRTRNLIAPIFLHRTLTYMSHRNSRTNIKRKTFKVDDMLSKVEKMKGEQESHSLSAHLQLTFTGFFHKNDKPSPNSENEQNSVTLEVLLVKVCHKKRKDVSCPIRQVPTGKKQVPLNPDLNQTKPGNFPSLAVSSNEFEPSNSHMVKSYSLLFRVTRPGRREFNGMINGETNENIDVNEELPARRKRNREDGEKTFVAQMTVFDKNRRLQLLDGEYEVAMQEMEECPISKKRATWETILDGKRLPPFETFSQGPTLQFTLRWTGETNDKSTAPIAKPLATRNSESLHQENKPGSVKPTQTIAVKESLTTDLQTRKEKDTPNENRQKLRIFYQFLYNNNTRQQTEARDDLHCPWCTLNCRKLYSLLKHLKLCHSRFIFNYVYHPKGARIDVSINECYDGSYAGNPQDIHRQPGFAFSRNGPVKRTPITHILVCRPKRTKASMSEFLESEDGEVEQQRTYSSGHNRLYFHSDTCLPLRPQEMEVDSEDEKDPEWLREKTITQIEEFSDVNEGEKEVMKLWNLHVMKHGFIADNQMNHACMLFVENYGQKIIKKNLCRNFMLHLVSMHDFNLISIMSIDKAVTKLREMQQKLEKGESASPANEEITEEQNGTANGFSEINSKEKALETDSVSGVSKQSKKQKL
Sequence of EED (1-441)-His protein (O75530 whole entry): as the sequence (O75530 whole entry) above

Compound	IC50 [1]	IC50 [2]	IC50 (EED (1-441)-His protein)
Cc1ncccc1-c1cnc(NCc2c(F)ccc3c2CCO3)n2cnnc12 [Example 2, N-((5-fluoro-2,3-dihydrobenzofuran-4-yl)methyl)-8-(2-methylpyridin-3-yl)-[1,2,4]triazolo[4,3-c]pyrimidin-5-amine]	2.6 nM		
CS(=O)(=O)c1ccc(-c2cnc(NCc3cccc4c3CCO4)n3cnnc23)c(F)c1 [Example 26, N-((2,3-dihydrobenzofuran-4-yl)methyl)-8-(2-fluoro-4-(methylsulfonyl)phenyl)-[1,2,4]triazolo[4,3-c]pyrimidin-5-amine]		17.1 nM	9.9 nM
[O-][n+]1cccc(-c2cnc(NCc3c(F)ccc4c3CCO4)n3cnnc23)c1 [Example 10, 3-(5-(((5-fluoro-2,3-dihydrobenzofuran-4-yl)methyl)amino)-[1,2,4]triazolo[4,3-c]pyrimidin-8-yl)pyridine 1-oxide]		13.8 nM	7.3 nM

The remaining lines, values ahead:

IC50 [1]	IC50 [2]	IC50 (EED (1-441)-His protein)	Compound
	17.5 nM	17.8 nM	CS(=O)(=O)Nc1ccc(-c2cnc(NCc3c(F)ccc4c3CCO4)n3cnnc23)cc1F [Example 39, N-(2-fluoro-4-(5-(((5-fluoro-2,3-dihydrobenzofuran-4-yl)methyl)amino)-[1,2,4]triazolo[4,3-c]pyrimidin-8-yl)phenyl)methanesulfonamide]
	6.8 nM	6.5 nM	CN(C)Cc1ccc(-c2cnc(NCc3c(F)ccc4occc34)n3cnnc23)cc1 [Example 219, 8-(4-((dimethylamino)methyl)phenyl)-N-((5-fluorobenzofuran-4-yl)methyl)-[1,2,4]triazolo[4,3-c]pyrimidin-5-amine]
	56.9 nM	27.5 nM	Nc1ccncc1-c1cnc(NCc2cccc3c2CCO3)n2cnnc12 [Example 76, 8-(4-aminopyridin-3-yl)-N-((2,3-dihydrobenzofuran-4-yl)methyl)-[1,2,4]triazolo[4,3-c]pyrimidin-5-amine]
	160 nM	103 nM	FC(F)Oc1ccc(-c2cnc(NCc3cccc4c3CCO4)n3cnnc23)cn1 [Example 78, 8-(6-(difluoromethoxy)pyridin-3-yl)-N-((2,3-dihydrobenzofuran-4-yl)methyl)-[1,2,4]triazolo[4,3-c]pyrimidin-5-amine]
